Values after ≈ are worked out from the molar mass of the structure shown. Read-outs that look alike come from different tables or passages of the source.
Assays:
Helicobacter pylori [1] = assay: Viability of H. pylori after 1 hour in prototype nutritional compositions containing FFA or MG (Example 3, Table 6); assay type: cell-based, Helicobacter pylori (ATCC 43629); details: for Change in viable cell number: 1 hour
Helicobacter pylori [2] = assay: Bactericidal activity of MG and FFA of varying chain length (Example 4, FIG. 1); assay type: cell-based, Helicobacter pylori HP-4 (ATCC 43629); details: FFA tested C4:0 to C17:0; 1 hour
Helicobacter pylori [3] = assay: Minimal inhibitory concentration (MIC) for H. pylori (Example 5); assay type: cell-based; details: Helicobacter pylori, read-out: MIC
Helicobacter pylori [4] = assay type: cell-based, Helicobacter pylori (HP-2, HP-4, HP-5); details: for Frequency of resistant mutants (number of spontaneous mutants): ~1 × 10^8 CFU
[5] = concentrations as low as two times the MIC

## CCCCCCCCCCCC(=O)O [Lauric Acid, lauric acid]
Helicobacter pylori [1]; Nutrament (Formulation II), 20 mM
  Change in viable cell number: -0.42 LOG CFU/mL
Helicobacter pylori [1]; Sustacal (Formulation I), 5 mM
  Change in viable cell number: 0.00 LOG CFU/mL
Helicobacter pylori [1]; Sustacal (Formulation I), 10 mM
  Change in viable cell number: 0.05 LOG CFU/mL
Helicobacter pylori [1]; Sustacal (Formulation I), 20 mM
  Change in viable cell number: -3.33 LOG CFU/mL
Helicobacter pylori [1]; Ultracal (Formulation III), 5 mM
  Change in viable cell number: 0.33 LOG CFU/mL
Helicobacter pylori [1]; Ultracal (Formulation III), 10 mM
  Change in viable cell number: -1.05 LOG CFU/mL
Helicobacter pylori [1]; Ultracal (Formulation III), 20 mM
  Change in viable cell number: -3.96 LOG CFU/mL
Helicobacter pylori [1]; lower levels than 20 mM
  Inhibition in nutritional compositions: not inhibitory
Helicobacter pylori [2]
  Bactericidal activity for H. pylori: showed bactericidal activity
Helicobacter pylori [3]; Table 7
  MIC: 50 µg/mL (≈ 250 µM)
Helicobacter pylori [3]; preliminary studies
  MIC: ~50 µg/mL (≈ 250 µM)
Helicobacter pylori [4]; [5]
  Frequency of resistance: < 1×10^-8
  Resistant variants of H. pylori: no resistant variants of H. pylori were found
Helicobacter pylori [4]; strain 43529 (so in the source), 2 × MIC
  Frequency of resistant mutants (number of spontaneous mutants): < 1
Helicobacter pylori [4]; strain 43529 (so in the source), 5 × MIC
  Frequency of resistant mutants (number of spontaneous mutants): < 1
Helicobacter pylori [4]; strain 43529 (so in the source), 10 × MIC
  Frequency of resistant mutants (number of spontaneous mutants): < 1
Helicobacter pylori [4]; strain 43579, 2 × MIC
  Frequency of resistant mutants (number of spontaneous mutants): < 1
Helicobacter pylori [4]; strain 43579, 5 × MIC
  Frequency of resistant mutants (number of spontaneous mutants): < 1
Helicobacter pylori [4]; strain 43579, 10 × MIC
  Frequency of resistant mutants (number of spontaneous mutants): < 1
Helicobacter pylori [4]; strain 49503, 2 × MIC
  Frequency of resistant mutants (number of spontaneous mutants): < 1
Helicobacter pylori [4]; strain 49503, 5 × MIC
  Frequency of resistant mutants (number of spontaneous mutants): < 1
Helicobacter pylori [4]; strain 49503, 10 × MIC
  Frequency of resistant mutants (number of spontaneous mutants): < 1

From US5660842A, “Inhibition of helicobacter” (Bristol-Myers Squibb Company, priority 1995, dated 1997)
